The source of these data is patent US9061004B2, “15-PGDH in colon cancer” (Case Western Reserve University, priority 2009, dated 2015).

In one data set the test system is PGE2. The data set can be described thus: Colonic mucosal PGE2 levels by LC/MS/MS after 2 weeks of celecoxib diet. The note with it: 2 weeks celecoxib diet, mean ± SEM. The class given is in vivo, mouse. As to the method: To further investigate the mechanism of celecoxib's dependence on 15-PGDH, we determined PGE2 levels in colonic mucosa of FVB mice under different experimental conditions. Consistent with the role of 15-PGDH in mediating prostaglandin degradation, 15-PGDH gene knockout essentially doubled FVB colonic PGE2 levels (9.1±1.5 ng/mg protein in knockouts versus 5.70±0.8 ng/mg protein in controls, P=0.04) (FIG. 1D). […] In contrast, in 15-PGDH knockout mice the biochemical activity of celecoxib was much attenuated, with the drug lowering PGE2 levels to only 4.7±0.8 ng/mg protein. […] In overview, the efficacy of celecoxib in lowering colonic PGE2 levels in these different models closely paralleled the drug's anti-tumor activity (FIG. 1D versus FIG. 1A, 1B), and mice that lacked 15-PGDH equally acquired resistance to celecoxib's biochemical activity of lowering colonic PGE2 and to celecoxib's phenotypic effect of preventing colon tumors. Celecoxib resistance of 15-PGDH null mice was not due to any change in drug absorption or catabolism, as tissue levels of celecoxib were indistinguishable between drug treated 15-PGDH wild-type and null mice (39.5±9.7 versus 37.7±7.6 ng/mg protein, P=0.7) (FIG. 2A). […] Rather, the effective depletion of colonic PGE2 required the COX-2 inhibitor drug to act in concert with the independent prostaglandin degrading activity of 15-PGDH. […]

The test system of another data set is colorectal adenomas. The data set can be described thus: Adenoma Prevention with Celecoxib (APC) trial, recurrent adenomas at 36 months. The class given is in vivo, human. The following applies: 16 individuals, 36 months of daily celecoxib. The text has this: To test this hypothesis, we examined frozen biopsies of rectal mucosa obtained from 16 individuals at the time of their enrollment in the Adenoma Prevention with Celecoxib (APC) trial (Bertagnolli, M. M. et al., (2006) N Engl J Med 355, 873-84). These individuals were all at high risk for colon adenoma development based on having had multiple colon adenomas and/or adenomas greater than 5 mm in diameter prior to their enrollment. Following clearing of their colonic adenomas by colonoscopy, each individual received 36-months of daily treatment with celecoxib (Bertagnolli, M. M. et al., (2006) N Engl J Med 355, 873-84). […] In total 9 new adenomas were detected in these patients (FIG. 3). 15-PGDH levels among individuals who developed new adenomas were lower than 15-PGDH levels among individuals who remained adenoma free (P=0.04) (FIG. 3). […] The relationship of low 15-PGDH level to celecoxib resistance becomes even stronger if analyzed in terms of the numbers of new adenomas that individuals developed, with 8 of the 9 adenomatous polyps that recurred during celecoxib treatment arising in individuals with colonic 15-PGDH values below the cohort median (P=0.01), and with all 9 new adenomas arising in individuals with colonic 15-PGDH below the cohort mean (P=0.001) (FIG. 3). […]

The subject of a further data set is AOM induced colon tumors. The data set can be described thus: AOM induced colon tumor development in FVB mice on dietary celecoxib. It is filed as in vivo, mouse. The following applies: for AOM induced colon tumors per mouse / AOM induced large colon tumors (>1 mm) per mouse: mean ± SEM. The text has this:
To conduct this study FVB mice were selected, chosen because at baseline this mouse strain is sensitive to AOM induced colon tumors (Nambiar, P. R. et al., (2003) Int J Oncol 22, 145-50). In 15-PGDH wild-type FVB mice, AOM induced 2.3±0.4 tumors per mouse colon (FIG. 1A, 1C), which on histology review were all adenomatous lesions. As in human trials, administering dietary celecoxib protected wild-type FVB mice against colon tumor development, reducing adenoma development to 0.7±0.3 tumors per mouse (P=0.003) (FIG. 1A, 1C). Furthermore, while nearly all tumors arising in control mice exceeded 1 mm in size, tumors in celecoxib treated mice rarely reached this size (2.2±0.4 versus 0.3±0.1, P<0.0001) (FIG. 1B).
Dietary celecoxib could thus near completely protect wild-type FVB mice from developing colon tumors. […] Thus, celecoxib treated 15-PGDH null mice developed 5.5-fold more colon adenomas than did their celecoxib treated 15-PGDH wild-type littermates (3.9±0.8 versus 0.7±0.3, P=0.0001) (FIG. 1A, 1C). Moreover, all colonic adenomas arising in celecoxib treated knockout mice were large, each exceeding 1 mm in size; whereas, large tumors were nearly completely absent in celecoxib treated 15-PGDH wild-type mice (3.9±0.8 large tumors per knockout mouse versus 0.3±0.1 per wild-type, P=0.0001) (FIG. 1B, 1C). By several measures, 15-PGDH knockout mice were almost completely resistant to the colon tumor prevention effects of celecoxib. […] Moreover, colon tumor development in celecoxib treated 15-PGDH knockout mice actually exceeded that of drug untreated wild-type mice (3.9±0.8 versus 2.2±0.4 respectively, for tumors >1 mm in size, P=0.04; and, 3.9±0.8 versus 2.3±0.4 respectively tumors of any size, P=0.06) (FIG. 1A, 1B). We conclude that celecoxib mediated colon tumor prevention requires concurrent presence of the prostaglandin inactivating activity of colonic 15-PGDH, and that 15-PGDH loss confers in vivo resistance to this drug effect.
Mouse studies were conducted in the Case Animal Resource Center under a protocol approved by the Institutional Animal Care and Use Committee. 15-Hydroxyprostaglandin dehydrogenase (15-PGDH) knockout mice on a C57BL/6J background were generated as described previously (Myung, S. J. et al., (2006) Proc Natl Acad Sci USA 103, 12098-102; Coggins, K. G. et al, (2002) Nat Med 8, 91-2) and were bred to generation F8 onto an FVB/N (Jackson Laboratory, Bar Harbor, Me.) background, with genotyping done as previously described (Myung, S. J. et al., (2006) Proc Natl Acad Sci U S A 103, 12098-102). 15-PGDH +/− mice generation F8 were intercrossed and siblings of 15-PGDH +/+ and −/− genotypes were selected out for studies with AOM and celecoxib. Eight- to 12-week-old mice were administered AOM by i.p. injection once weekly for 6 weeks at 10mg/kg dose (Sigma Chemical Co., St. Louis, Mo.). Mice were euthanized 24 weeks after the last AOM injection. After euthanizing, the colons were opened longitudinally, rinsed with ice-cold PBS, and examined under a dissecting microscope to identify all tumors. Tumors were resected, fixed in 10% neutral buffered formalin, and paraffin-embedded for histologic examination. All mice received an AIN-76A diet (Harlan Teklad, Madison, Wis.). The diet of celecoxib treated mice was supplemented with 1250 mg/kg of this agent (LKT laboratories, St. Paul, Minn.) (Williams, C. S. et al., (2000) Cancer Res 60, 6045-51). In AOM studies, celecoxib supplementation was initiated starting the day of first AOM injection and continued throughout the lifetime of the mouse. In studies of colonic prostaglandin levels celecoxib was administered to a cohort of 8-12 week old mice continuously for 2 weeks, at which time mice were euthanized.
Prostaglandin and celecoxib levels were log transformed in order to be approximately normally distributed for analysis with a generalized linear regression model with contrasts, generating two-sided P-values. […]

Data set [1] is described as follows: Celecoxib tissue levels in colonic mucosa by LC/MS/MS. The note with it: 2 weeks celecoxib supplemented diet, mean ± SEM. It is filed as in vivo, mouse. As to the method: Mouse studies were conducted in the Case Animal Resource Center under a protocol approved by the Institutional Animal Care and Use Committee. 15-Hydroxyprostaglandin dehydrogenase (15-PGDH) knockout mice on a C57BL/6J background were generated as described previously (Myung, S. J. et al., (2006) Proc Natl Acad Sci USA 103, 12098-102; Coggins, K. G. et al, (2002) Nat Med 8, 91-2) and were bred to generation F8 onto an FVB/N (Jackson Laboratory, Bar Harbor, Me.) background, with genotyping done as previously described (Myung, S. J. et al., (2006) Proc Natl Acad Sci U S A 103, 12098-102). 15-PGDH +/− mice generation F8 were intercrossed and siblings of 15-PGDH +/+ and −/− genotypes were selected out for studies with AOM and celecoxib. Eight- to 12-week-old mice were administered AOM by i.p. injection once weekly for 6 weeks at 10mg/kg dose (Sigma Chemical Co., St. Louis, Mo.). Mice were euthanized 24 weeks after the last AOM injection. […]
Following 2 weeks of control or celecoxib supplemented diet mice were euthanized. […] The celecoxib level in the samples was determined by LC/MS/MS. […] Celecoxib was detected and quantified by operating the mass spectrometer in electrospray negative ion mode and monitoring the transition m/z 380.2>316.1. Quantification was done by comparing the sample peak areas to a standard curve and concentration of celecoxib was normalized by protein concentration.

The next data set deals with 15-PGDH mRNA. The note with it: cited from earlier work.

Consider `Cc1ccc(-c2cc(C(F)(F)F)nn2-c2ccc(S(N)(=O)=O)cc2)cc1` [celecoxib], for which the “Colonic mucosal PGE2 level” value in the data set on PGE2 (15-PGDH knockout FVB mice) was found to be 4.7±0.8 ng/mg protein; with PGE2 (15-PGDH wild-type FVB mice) it was 1.6±0.4 ng/mg protein. In addition, the “Total new adenomas detected” value in the data set with colorectal adenomas amounted to 9. Also, the “AOM induced colon tumors per mouse” value with AOM induced colon tumors (15-PGDH knockout (null) FVB mice, dietary celecoxib) amounted to 3.9±0.8; with AOM induced colon tumors (15-PGDH wild-type FVB mice, dietary celecoxib 1250 mg/kg diet) it was 0.7±0.3 tumors per mouse. Further, the “AOM induced large colon tumors (>1 mm) per mouse” value with AOM induced colon tumors (15-PGDH knockout FVB mice, dietary celecoxib) is 3.9±0.8 large tumors per knockout mouse; in the data set with AOM induced colon tumors (15-PGDH wild-type FVB mice, dietary celecoxib), 0.3±0.1. In the data set on AOM induced colon tumors (FVB mice (15-PGDH wild-type)), the “Prevention of AOM induced tumors >1 mm in size” value is 85%. Also, the “Colon adenomas in celecoxib treated 15-PGDH null mice relative to celecoxib treated wild-type littermates” value in the data set on AOM induced colon tumors (null versus wild-type, both celecoxib treated) is recorded as 5.5 fold. Also, the “Tissue level of celecoxib in colonic mucosa” value stood at 37.7±7.6 ng/mg protein in data set [1] (15-PGDH null mice) and 39.5±9.7 ng/mg protein in data set [1] (15-PGDH wild-type mice).

Consider `C#Cc1cccc(Nc2ncnc3cc(OCCOC)c(OCCOC)cc23)c1` [erlotinib], for which the “Effect on 15-PGDH mRNA levels” value in the data set with 15-PGDH mRNA was “induce 15-PGDH mRNA levels”.
